Experimental data from patent publication US20180303101A1, “METHOD OF IMPROVING GRASS QUALITY” (priority 2004, published 2018).

Test system: creeping bentgrass (variety Penncross) turf
Assay: Bentgrass color rating after foliar spray (Example 4)
Type: in vivo
Settings: 6 weeks after treatment; iprodione 4 oz/1000 sq. ft.; Pigment Green 7 6.8 or 13.6 g/1000 sq. ft. in combination, 13.6 g alone
Excerpt: Pigment Green 7 was suspended in water and applied as a foliar spray to creeping bentgrass (variety Penncross) turf with a pressurized sprayer at a spray volume of 1.37 gallons of water per 1000 sq. ft. (ca. 560 l/ha). Pigment Green 7 was applied at rates of 6.8, 13.9, and 20.4 grams per 1000 sq. ft. (0.73, 1.5, and 2.2 kg/ha, respectively). Each treatment was replicated 4 times. An untreated plot was included and was also replicated four times. The average color of the bentgrass was visually evaluated at 6 weeks after treatment. Color was evaluated on a qualitative scale from 1-9, with 9 being the highest quality and 1 the lowest quality.
The procedure of Example 2 was repeated using iprodione fungicide (in the form of 26 GT brand iprodione fungicide) at 4 oz/1000 sq. ft. (ca. 1.3 mL/m2), iprodione at 4 oz/1000 sq. ft. (ca. 1.3 mL/m2) plus Pigment Green 7 at 6.8 g/1000 sq. ft. (0.73 kg/ha), iprodione at 4 oz/1000 sq. ft. plus Pigment Green 7 at 13.6 g/1000 sq. ft. (1.5 kg/ha), and Pigment Green 7 at 13.6 g/1000 sq. ft. (1.5 kg/ha). At 6 weeks after treatment, the color ratings were as follows.

For `CC(C)NC(=O)N1CC(=O)N(c2cc(Cl)cc(Cl)c2)C1=O` [iprodione, 3-(3,5-dichlorophenyl)-N-(l-methylethyl)-2,4-dioxo-1-imidazolidinecarbox-amide, reference compound], the “Color rating versus untreated check” value was “not significantly different than the untreated check”.
